Reference: the supplement of paper PMC12463676, “Small-molecule dissolution of stress granules by redox modulation benefits ALS models” (Nature Chemical Biology, 2025)

Tests used:
lipoamide = compound: NC(=O)CCCCC1CCSS1 [lipoamide]; assay: thermal stability z-score vs DMSO; higher = more thermally stabilized by treatment; details: HeLa, lipoamide concentration 100 µM
Protocol: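 Cellular thermal proteome profiling in HeLa cells. Cells were treated with 100 µM lipoamide for 1 h, with or without 1 mM arsenate for a further 1 h, then heated to ten temperatures (37-66.3 °C), and soluble protein was quantified by TMT mass spectrometry relative to 0.1% DMSO controls. The thermal stability score (sum of log2 fold changes minus the abundance score) was transformed to a z-score; mean of n = 3 experiments.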

potassium arsenate = compound: O=[As]([O-])(O)O.[K+] [potassium arsenate]; assay: as above; details: HeLa; arsenate concentration 1 mM
Protocol: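 Cellular thermal proteome profiling in HeLa cells treated with 1 mM arsenate for 1 h (DMSO pretreatment), heated to ten temperatures (37-66.3 °C). Soluble protein was quantified by TMT mass spectrometry relative to DMSO controls; the thermal stability score was transformed to a z-score; mean of n = 3 experiments.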

[1] = arsenate co-treatment: 1 mM arsenate 1 h
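Further: each temperature applied for 3 min, abundance score taken as mean log2 fold change at the two lowest temperatures, z-score obtained by mean subtraction and division by SD.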

Chain of UniProt Q5JSH3 (Q5JSH3 whole entry): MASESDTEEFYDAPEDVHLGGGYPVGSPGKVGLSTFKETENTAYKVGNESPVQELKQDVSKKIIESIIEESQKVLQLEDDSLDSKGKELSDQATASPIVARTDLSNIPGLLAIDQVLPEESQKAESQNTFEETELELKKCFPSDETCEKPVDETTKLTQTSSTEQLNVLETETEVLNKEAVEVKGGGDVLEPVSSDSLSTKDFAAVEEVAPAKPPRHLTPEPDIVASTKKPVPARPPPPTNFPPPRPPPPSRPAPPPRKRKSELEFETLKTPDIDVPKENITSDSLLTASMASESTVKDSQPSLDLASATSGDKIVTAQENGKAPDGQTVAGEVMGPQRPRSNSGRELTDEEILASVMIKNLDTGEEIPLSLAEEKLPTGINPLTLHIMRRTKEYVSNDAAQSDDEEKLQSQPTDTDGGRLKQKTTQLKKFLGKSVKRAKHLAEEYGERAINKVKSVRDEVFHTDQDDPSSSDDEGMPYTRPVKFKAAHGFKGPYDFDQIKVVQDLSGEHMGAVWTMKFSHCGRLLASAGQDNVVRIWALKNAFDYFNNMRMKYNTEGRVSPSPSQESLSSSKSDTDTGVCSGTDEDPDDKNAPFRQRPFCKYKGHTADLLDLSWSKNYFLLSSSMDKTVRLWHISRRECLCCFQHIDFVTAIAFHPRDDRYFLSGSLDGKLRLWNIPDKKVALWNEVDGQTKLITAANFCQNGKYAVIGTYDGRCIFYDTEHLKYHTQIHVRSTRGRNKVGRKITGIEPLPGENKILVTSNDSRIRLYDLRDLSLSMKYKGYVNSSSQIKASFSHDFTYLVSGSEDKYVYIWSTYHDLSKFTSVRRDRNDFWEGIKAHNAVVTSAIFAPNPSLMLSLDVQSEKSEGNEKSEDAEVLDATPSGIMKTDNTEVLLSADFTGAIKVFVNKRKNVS
Chain of UniProt Q9BX10 (Q9BX10 whole entry): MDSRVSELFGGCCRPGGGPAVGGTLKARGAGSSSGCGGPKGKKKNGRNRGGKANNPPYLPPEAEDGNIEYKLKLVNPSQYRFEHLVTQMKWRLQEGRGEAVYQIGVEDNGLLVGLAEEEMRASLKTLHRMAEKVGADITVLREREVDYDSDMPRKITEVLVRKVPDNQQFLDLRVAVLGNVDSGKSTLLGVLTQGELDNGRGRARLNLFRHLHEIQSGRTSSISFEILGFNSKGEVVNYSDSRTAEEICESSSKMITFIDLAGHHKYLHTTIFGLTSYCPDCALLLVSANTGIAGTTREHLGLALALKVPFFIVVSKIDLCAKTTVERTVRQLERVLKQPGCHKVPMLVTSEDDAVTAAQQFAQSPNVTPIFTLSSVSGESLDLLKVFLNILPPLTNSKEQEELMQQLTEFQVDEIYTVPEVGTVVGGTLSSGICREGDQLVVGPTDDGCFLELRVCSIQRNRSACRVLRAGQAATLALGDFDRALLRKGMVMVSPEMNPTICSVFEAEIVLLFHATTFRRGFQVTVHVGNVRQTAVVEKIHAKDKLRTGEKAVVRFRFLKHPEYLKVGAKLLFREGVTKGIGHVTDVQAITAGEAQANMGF
Chain of UniProt Q9UNZ2 (Q9UNZ2 whole entry): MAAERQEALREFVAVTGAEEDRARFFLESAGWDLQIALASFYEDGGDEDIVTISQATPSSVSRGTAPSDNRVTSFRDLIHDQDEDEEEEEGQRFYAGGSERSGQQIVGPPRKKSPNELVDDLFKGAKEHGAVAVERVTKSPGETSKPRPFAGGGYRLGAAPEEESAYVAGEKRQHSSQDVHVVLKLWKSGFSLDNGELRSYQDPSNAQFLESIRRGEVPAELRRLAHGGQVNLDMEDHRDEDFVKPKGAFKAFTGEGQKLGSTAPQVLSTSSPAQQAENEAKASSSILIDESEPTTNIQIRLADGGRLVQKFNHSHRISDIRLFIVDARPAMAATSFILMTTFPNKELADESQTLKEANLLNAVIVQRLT
Chain of UniProt Q96KC8 (Q96KC8 whole entry): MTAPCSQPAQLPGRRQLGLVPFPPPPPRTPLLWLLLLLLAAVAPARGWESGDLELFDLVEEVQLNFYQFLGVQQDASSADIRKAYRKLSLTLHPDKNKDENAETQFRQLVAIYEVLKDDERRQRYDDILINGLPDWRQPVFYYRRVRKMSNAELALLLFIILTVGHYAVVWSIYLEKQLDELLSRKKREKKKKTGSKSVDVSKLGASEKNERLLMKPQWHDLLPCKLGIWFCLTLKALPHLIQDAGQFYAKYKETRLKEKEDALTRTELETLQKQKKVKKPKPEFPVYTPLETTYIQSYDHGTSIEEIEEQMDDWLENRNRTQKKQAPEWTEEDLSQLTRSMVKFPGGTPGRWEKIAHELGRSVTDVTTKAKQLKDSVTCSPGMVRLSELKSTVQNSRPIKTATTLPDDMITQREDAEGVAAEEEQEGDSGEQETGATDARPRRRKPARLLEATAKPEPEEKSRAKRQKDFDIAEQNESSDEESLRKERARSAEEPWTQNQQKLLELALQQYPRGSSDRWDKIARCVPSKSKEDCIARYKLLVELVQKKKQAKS
Chain of UniProt Q5VYS8 (Q5VYS8 whole entry): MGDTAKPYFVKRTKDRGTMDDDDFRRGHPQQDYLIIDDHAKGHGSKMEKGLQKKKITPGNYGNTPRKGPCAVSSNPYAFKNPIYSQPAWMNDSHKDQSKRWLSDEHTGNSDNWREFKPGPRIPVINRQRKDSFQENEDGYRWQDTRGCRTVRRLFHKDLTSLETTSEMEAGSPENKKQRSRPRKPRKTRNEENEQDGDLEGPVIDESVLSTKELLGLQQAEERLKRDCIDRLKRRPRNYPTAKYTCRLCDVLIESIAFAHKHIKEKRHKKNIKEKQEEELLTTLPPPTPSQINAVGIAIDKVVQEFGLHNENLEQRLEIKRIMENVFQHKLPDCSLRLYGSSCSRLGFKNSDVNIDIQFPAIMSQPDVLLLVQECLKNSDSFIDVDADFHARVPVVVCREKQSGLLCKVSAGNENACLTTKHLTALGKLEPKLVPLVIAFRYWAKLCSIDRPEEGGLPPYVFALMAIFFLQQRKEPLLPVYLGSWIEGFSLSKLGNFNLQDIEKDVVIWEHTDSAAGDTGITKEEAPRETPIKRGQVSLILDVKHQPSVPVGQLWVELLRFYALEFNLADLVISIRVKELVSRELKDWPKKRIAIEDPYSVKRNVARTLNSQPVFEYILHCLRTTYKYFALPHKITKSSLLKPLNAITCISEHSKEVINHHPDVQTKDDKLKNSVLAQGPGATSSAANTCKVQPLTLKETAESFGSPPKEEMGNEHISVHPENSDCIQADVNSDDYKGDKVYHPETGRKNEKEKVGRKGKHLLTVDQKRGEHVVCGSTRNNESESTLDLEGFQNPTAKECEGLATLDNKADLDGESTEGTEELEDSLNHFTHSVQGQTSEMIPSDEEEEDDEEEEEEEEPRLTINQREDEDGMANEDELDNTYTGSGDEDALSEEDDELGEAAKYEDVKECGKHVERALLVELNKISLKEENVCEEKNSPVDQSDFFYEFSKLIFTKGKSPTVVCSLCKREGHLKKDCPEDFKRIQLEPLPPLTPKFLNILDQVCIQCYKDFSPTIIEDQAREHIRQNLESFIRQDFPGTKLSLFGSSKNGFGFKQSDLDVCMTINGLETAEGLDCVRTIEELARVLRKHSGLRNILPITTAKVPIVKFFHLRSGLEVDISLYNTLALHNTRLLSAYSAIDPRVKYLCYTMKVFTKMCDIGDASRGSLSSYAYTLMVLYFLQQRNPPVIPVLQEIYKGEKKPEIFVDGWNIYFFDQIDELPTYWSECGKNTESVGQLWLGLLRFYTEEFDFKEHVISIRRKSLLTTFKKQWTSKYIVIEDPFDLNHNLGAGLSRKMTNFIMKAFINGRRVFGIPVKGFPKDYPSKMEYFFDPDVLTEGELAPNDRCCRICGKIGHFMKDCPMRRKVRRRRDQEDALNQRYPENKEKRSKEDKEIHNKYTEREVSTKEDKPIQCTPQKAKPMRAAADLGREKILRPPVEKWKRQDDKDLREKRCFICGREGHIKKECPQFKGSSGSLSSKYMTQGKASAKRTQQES
Chain of UniProt Q15118 (Q15118 whole entry, looked up): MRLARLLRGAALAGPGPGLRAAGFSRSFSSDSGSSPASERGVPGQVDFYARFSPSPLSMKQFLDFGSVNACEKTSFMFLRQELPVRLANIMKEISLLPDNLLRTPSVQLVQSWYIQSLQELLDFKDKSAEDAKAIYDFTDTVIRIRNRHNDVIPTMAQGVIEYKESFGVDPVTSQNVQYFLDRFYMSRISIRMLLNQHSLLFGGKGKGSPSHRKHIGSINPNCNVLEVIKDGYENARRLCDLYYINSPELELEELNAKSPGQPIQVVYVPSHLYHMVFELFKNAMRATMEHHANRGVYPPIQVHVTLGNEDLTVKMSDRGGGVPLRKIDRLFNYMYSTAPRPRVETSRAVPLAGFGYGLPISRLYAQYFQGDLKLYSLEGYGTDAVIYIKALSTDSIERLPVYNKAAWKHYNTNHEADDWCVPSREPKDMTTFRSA
Chain of UniProt Q9HAV7 (Q9HAV7 whole entry): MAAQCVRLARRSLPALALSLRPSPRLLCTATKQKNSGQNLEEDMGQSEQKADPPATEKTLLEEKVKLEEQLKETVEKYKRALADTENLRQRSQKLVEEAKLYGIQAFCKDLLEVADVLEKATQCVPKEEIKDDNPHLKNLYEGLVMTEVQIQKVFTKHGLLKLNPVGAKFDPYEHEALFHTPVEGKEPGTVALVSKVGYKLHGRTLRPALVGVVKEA
Chain of UniProt P45983 (P45983 whole entry): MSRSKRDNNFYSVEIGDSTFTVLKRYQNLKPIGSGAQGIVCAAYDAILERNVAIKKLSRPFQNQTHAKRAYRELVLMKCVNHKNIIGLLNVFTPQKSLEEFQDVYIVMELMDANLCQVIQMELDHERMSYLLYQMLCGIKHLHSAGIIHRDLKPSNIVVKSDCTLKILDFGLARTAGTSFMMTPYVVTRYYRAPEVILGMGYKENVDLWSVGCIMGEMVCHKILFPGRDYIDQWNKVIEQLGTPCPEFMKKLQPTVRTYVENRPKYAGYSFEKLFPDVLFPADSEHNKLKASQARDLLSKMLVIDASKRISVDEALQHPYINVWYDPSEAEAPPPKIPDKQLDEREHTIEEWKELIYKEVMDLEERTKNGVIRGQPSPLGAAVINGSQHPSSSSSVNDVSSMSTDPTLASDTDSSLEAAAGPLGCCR

Target | thermal stability z-score (lipoamide; [1]) | thermal stability z-score (lipoamide; arsenate co-treatment: none) | thermal stability z-score (potassium arsenate)
GLRX3 (UniProt O76003) | 0.153 | 0.465 | 0.88
COPB1 (UniProt P53618) | 0.189 | 0.0616 | 0.367
ME1 (UniProt P48163) | 0.408 | 0.575 | -0.207
CDK7 (UniProt P50613) | -0.000906 | -0.0377 | -0.0106
AP1B1 (UniProt Q10567) | 0.216 | 0.0123 | 0.425
MPP1 (UniProt Q00013) | -0.0663 | -0.0569 | -0.163
ATP6V0A2 (UniProt Q9Y487) | -0.105 | 0.146 | -0.424
CORO1B (UniProt Q9BR76) | -0.396 | -0.129 | -0.66
RPS19BP1 (UniProt Q86WX3) | -0.305 | -0.278 | -0.522
DOCK1 (UniProt Q14185) | -0.371 | -1.05 | 0.0692
RPS6KA1 (UniProt Q15418) | -0.0567 | -0.413 | 0.0783
ALDOA (UniProt P04075) | 0.281 | 0.0525 | -0.488
PDHX (UniProt O00330) | -0.515 | -0.468 | -6.67
RNPEP (UniProt Q9H4A4) | 0.126 | -0.189 | 0.878
SMCHD1 (UniProt A6NHR9) | -0.13 | -0.0876 | -0.528
ITPR1 (UniProt Q14643) | -0.434 | -0.461 | -0.46
GTF2H4 (UniProt Q92759) | 0.108 | 0.112 | 0.148
PDK1 (UniProt Q15118) | 0.35 | -0.0874 | 0.836
DHRS1 (UniProt Q96LJ7) | -0.121 | 0.743 | 0.812
PKP2 (UniProt Q99959) | 0.0483 | -0.112 | -0.371
NUDT3 (UniProt O95989) | 0.511 | 0.241 | -0.213
ABCB1 (UniProt P08183) | 0.00691 | 0.00658 | -0.039
MAPK8 (UniProt P45983) | 0.24 | 0.00773 | -0.00139
DVL2 (UniProt O14641) | -0.0654 | -0.194 | -0.113

Target | thermal stability z-score (lipoamide; [1]) | thermal stability z-score (lipoamide; arsenate co-treatment: none) | thermal stability z-score (potassium arsenate)
KIF15 (UniProt Q9NS87) | -0.328 | -0.386 | 0.921
TPP1 (UniProt O14773) | -0.299 | -0.137 | -0.0975
ASAH1 (UniProt Q13510) | -0.162 | -0.738 | 0.065
POLA2 (UniProt Q14181) | -0.305 | -0.0588 | -0.183
HEATR1 (UniProt Q9H583) | -1.73 | -1.13 | -0.114
TRIP13 (UniProt Q15645) | -0.215 | -0.735 | -0.184
COX20 (UniProt Q5RI15) | -0.11 | -0.155 | -0.19
SLC7A6OS (UniProt Q96CW6) | -0.344 | 0.403 | -0.000281
AIDA (UniProt Q96BJ3) | -0.00864 | 0.00569 | -0.0785
DST (UniProt Q03001) | 0.0624 | -0.113 | -0.103
NAA38 (UniProt Q9BRA0) | 0.599 | 0.425 | -0.643
MRPS6 (UniProt P82932) | -0.216 | -0.13 | -0.516
ZNHIT2 (UniProt Q9UHR6) | -0.047 | 0.147 | -0.28
GTPBP2 (UniProt Q9BX10) | 0.122 | 0.0371 | 0.0134
C9ORF85 (UniProt Q96MD7) | 0.0672 | 1.62 | 0.132
WDR44 (UniProt Q5JSH3) | 0.411 | 0.42 | 0.635
DNAJC1 (UniProt Q96KC8) | -0.436 | -0.516 | -0.725
UTP20 (UniProt O75691) | -0.113 | -0.168 | -0.134
YBEY (UniProt P58557) | -0.077 | 0.169 | 0.131
IRF2BP2 (UniProt Q7Z5L9) | 0.371 | -0.0192 | -2.51
TTC9C (UniProt Q8N5M4) | -0.988 | -0.401 | -0.649
POLR2G (UniProt P62487) | 0.343 | 0.681 | -1.1
NSFL1C (UniProt Q9UNZ2) | 0.605 | 0.41 | 1.21
RABAC1 (UniProt Q9UI14) | 0.138 | -0.0907 | -0.431

Target | thermal stability z-score (lipoamide; [1]) | thermal stability z-score (lipoamide; arsenate co-treatment: none) | thermal stability z-score (potassium arsenate)
CASP7 (UniProt P55210) | 0.596 | 0.147 | -0.753
VLDLR (UniProt P98155) | -0.517 | -0.526 | -0.86
SARAF (UniProt Q96BY9) | -0.355 | -0.0205 | 0.00539
DARS (UniProt P14868) | 0.186 | -0.0144 | -0.593
CHTF18 (UniProt Q8WVB6) | -0.117 | -0.0426 | -0.0702
NAA30 (UniProt Q147X3) | -0.282 | 0.317 | -0.43
GNE (UniProt Q9Y223) | 0.652 | 0.274 | 0.317
SLC4A1AP (UniProt Q9BWU0) | 0.445 | 0.341 | -1.27
TNS4 (UniProt Q8IZW8) | -0.0278 | -0.078 | -0.0861
GCFC2 (UniProt P16383) | 0.317 | 0.441 | -0.00138
C4BPB (UniProt P20851) | -5.06 | -5.39 | 0.18
HECTD1 (UniProt Q9ULT8) | -0.353 | -0.164 | 0.641
ZCCHC6 (UniProt Q5VYS8) | -0.043 | -0.0119 | -0.0705
GRPEL1 (UniProt Q9HAV7) | -0.953 | 0.246 | -0.236
OMA1 (UniProt Q96E52) | -0.791 | -1.46 | -0.431
FLAD1 (UniProt Q8NFF5) | 0.0301 | 0.05 | -1.16
DSN1 (UniProt Q9H410) | 0.0417 | -0.0069 | 0.127
EVL (UniProt Q9UI08) | -0.0697 | 0.187 | -0.462
CETN2 (UniProt P41208) | 0.767 | 0.569 | 0.798
EXD2 (UniProt Q9NVH0) | -0.228 | -0.168 | -0.499
WIPI1 (UniProt Q5MNZ9) | -0.175 | -0.814 | 0.18
MKNK1 (UniProt Q9BUB5) | -0.146 | -0.928 | -1.53
UMPS (UniProt P11172) | 0.111 | 0.297 | -1.02
